Literature values in patent US8968778B2, “Threo-DOPS controlled release formulation” (Lundbeck NA Ltd., priority 2003, dated 2015).

| Structure (SMILES) | Time that increased plasma levels of both molecules (L-threo-DOPS and NE) remain (after oral administration of L-threo-DOPS) | Time of peak plasma levels of L-threo-DOPS (after oral ingestion) [h] | Time of peak NE levels (after oral ingestion of L-threo-DOPS, norepinephrine in plasma) [h] | Specific uptake in microvessel preparations (microvessel preparations) |
| --- | --- | --- | --- | --- |
| N[C@H](C(=O)O)[C@H](O)c1ccc(O)c(O)c1 [L-threo-DOPS] | at least 12 hours | 3 | 5 | – |
| N[C@H](C(=O)O)[C@H](O)c1ccc(O)c(O)c1 [threo-DOPS, Threo-3-(3,4-dihydroxyphenyl)serine] | – | – | – | Specific uptake |
